Measurements published in patent publication US10221182B2, “3,3-difluoro-piperidine derivatives as NR2B NMDA receptor antagonists” (Rugen Holdings (Cayman) Limited, priority 2015, dated 2019).
pIC50: −log10 of the molar value. Read-outs that look alike come from different tables or passages of the source.

Legend:
human NR1/NR2B = human NR1/NR2B (Homo sapiens (Human), UniProt Q05586+Q13224); experiment: NR2B antagonist activity, Fluo-4 calcium influx assay in HEK293 cells; assay type: cell-based; settings: glutamate 100 μM, glycine 50 μM
human NR1/NR2B, sequence (Q13224 27-1484, other chains not shown): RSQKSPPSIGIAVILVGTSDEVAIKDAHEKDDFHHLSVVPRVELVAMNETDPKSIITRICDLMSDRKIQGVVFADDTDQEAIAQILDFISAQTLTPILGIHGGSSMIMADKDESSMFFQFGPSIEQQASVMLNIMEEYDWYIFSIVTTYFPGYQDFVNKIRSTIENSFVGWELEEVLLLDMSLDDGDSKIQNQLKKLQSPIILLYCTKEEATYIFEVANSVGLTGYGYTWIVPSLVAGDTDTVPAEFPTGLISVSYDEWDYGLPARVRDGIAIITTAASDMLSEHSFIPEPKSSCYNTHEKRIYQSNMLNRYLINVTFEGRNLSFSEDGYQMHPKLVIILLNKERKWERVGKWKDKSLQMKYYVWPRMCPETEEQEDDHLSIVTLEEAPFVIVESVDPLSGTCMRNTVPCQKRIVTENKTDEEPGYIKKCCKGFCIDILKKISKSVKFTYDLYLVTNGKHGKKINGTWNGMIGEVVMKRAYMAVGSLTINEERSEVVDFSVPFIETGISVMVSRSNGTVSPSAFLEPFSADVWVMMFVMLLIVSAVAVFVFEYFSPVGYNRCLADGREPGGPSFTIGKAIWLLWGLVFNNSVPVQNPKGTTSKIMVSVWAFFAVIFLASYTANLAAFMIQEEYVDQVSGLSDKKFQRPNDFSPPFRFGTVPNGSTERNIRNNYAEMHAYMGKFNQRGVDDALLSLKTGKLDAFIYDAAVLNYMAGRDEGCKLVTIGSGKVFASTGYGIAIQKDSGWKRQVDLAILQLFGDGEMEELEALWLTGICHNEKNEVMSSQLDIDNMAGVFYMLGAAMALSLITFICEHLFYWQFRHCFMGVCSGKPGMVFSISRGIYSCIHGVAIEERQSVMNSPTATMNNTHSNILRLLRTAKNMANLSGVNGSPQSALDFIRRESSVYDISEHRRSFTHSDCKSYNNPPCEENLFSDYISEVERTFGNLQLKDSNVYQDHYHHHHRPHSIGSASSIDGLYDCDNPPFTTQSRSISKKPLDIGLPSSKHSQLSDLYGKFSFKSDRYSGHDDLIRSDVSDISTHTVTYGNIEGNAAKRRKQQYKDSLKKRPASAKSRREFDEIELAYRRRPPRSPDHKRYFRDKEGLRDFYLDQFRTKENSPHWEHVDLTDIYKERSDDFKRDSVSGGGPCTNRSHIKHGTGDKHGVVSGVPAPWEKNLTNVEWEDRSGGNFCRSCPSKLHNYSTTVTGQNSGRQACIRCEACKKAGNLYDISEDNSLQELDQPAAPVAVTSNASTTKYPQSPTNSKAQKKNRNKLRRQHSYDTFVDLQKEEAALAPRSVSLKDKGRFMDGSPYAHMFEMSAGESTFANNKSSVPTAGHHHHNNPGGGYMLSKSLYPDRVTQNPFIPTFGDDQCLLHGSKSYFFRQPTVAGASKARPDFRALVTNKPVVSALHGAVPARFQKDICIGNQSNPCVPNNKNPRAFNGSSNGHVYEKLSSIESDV
Description: (§1) Activation of the NR2A or NR2B subtype of NMDA receptor with glutamate as an agonist and glycine co-agonist on these cells results in calcium influx, which can be monitored with fluorescent indicator Fluo-4.
(§2) For experiments, the cells were seeded onto poly-D-lysine-coated 96-well black plates with clear bottom (Corning) at a density of ˜50,000 cells/well. After overnight culture, the growth medium was removed from the wells and the cells were incubated at 37° C. for 60 min in Hanks buffer containing 4 μM fluo-4-AM (Invitrogen) and 0.1% bovine serum albumin (BSA). After dye-loading, the cells were washed three times with Hanks buffer and incubated for 10 min at room temperature with various concentrations of test compounds prepared in Hanks buffer with 0.1% BSA. The cell plates were placed onto FDSS μCell fluorescence reader (Hamamatsu). After 20 sec reading of background fluorescence, agonist glutamate at final 100 μM and co-agonist glycine at final 50 μM were added to the cells to activate the receptor, and the resulting fluorescence changes were recorded and quantified. Based on the changes in fluorescence intensity, the pharmacological effect of test compounds were analyzed and the IC50 values derived from a non-linear least squares fitting of the concentration-dependent response to a standard logistic equation using Prism (Graphpad, Inc): Amplitude=Max Amplitude/(1+([…])^n).

human NR1/NR2A [1] = molecular target: human NR1/NR2A (Homo sapiens (Human), UniProt Q05586+Q12879); experiment: NR2A antagonist activity, Fluo-4 calcium influx assay in HEK293 cells; assay type: cell-based
human NR1/NR2A (Homo sapiens (Human), UniProt Q05586+Q12879), sequence (Q12879 23-1464, other chains not shown): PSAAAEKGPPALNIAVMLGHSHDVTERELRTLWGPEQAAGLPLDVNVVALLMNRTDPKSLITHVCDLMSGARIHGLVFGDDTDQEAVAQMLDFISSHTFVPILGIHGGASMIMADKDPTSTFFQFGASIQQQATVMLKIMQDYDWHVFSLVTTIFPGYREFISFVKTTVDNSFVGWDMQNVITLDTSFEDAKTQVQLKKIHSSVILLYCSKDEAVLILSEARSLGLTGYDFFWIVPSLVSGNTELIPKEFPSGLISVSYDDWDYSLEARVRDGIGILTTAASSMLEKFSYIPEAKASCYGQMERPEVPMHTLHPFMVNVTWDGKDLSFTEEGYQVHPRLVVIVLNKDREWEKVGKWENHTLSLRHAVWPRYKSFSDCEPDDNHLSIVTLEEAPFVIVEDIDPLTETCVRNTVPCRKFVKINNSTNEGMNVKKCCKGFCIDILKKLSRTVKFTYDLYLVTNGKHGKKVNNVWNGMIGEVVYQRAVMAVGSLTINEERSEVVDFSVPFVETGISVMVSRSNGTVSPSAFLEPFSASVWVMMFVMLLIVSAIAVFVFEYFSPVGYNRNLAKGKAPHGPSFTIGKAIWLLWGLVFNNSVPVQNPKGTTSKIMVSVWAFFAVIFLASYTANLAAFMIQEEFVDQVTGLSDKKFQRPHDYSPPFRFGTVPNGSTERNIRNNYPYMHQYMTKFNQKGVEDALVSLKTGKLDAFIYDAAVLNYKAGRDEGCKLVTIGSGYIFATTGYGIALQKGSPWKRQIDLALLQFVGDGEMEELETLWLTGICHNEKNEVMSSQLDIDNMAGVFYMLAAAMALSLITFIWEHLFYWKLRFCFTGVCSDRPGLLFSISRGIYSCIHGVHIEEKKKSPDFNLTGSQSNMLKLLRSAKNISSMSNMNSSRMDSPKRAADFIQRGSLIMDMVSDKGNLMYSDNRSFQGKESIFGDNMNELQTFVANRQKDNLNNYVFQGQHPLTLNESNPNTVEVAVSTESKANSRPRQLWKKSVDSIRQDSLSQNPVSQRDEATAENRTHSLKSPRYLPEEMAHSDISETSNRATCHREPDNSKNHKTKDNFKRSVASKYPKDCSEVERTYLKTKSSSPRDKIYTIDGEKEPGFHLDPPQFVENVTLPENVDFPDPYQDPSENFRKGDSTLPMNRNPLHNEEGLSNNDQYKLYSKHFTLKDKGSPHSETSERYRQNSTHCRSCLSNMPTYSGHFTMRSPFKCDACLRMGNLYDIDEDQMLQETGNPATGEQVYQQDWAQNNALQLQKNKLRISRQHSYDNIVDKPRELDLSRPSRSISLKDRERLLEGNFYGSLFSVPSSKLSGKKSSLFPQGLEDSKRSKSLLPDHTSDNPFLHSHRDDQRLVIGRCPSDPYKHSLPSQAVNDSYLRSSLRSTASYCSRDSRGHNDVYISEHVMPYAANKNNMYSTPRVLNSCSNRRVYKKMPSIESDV
Description: as §1, §2

hERG channel = hERG channel (Homo sapiens (Human), UniProt Q12809); experiment: hERG channel inhibition, whole cell patch clamp in HEK293 cells; settings: for hERG @ 10 μM: inhibition at 10 μM
hERG channel, sequence (Q12809 whole entry): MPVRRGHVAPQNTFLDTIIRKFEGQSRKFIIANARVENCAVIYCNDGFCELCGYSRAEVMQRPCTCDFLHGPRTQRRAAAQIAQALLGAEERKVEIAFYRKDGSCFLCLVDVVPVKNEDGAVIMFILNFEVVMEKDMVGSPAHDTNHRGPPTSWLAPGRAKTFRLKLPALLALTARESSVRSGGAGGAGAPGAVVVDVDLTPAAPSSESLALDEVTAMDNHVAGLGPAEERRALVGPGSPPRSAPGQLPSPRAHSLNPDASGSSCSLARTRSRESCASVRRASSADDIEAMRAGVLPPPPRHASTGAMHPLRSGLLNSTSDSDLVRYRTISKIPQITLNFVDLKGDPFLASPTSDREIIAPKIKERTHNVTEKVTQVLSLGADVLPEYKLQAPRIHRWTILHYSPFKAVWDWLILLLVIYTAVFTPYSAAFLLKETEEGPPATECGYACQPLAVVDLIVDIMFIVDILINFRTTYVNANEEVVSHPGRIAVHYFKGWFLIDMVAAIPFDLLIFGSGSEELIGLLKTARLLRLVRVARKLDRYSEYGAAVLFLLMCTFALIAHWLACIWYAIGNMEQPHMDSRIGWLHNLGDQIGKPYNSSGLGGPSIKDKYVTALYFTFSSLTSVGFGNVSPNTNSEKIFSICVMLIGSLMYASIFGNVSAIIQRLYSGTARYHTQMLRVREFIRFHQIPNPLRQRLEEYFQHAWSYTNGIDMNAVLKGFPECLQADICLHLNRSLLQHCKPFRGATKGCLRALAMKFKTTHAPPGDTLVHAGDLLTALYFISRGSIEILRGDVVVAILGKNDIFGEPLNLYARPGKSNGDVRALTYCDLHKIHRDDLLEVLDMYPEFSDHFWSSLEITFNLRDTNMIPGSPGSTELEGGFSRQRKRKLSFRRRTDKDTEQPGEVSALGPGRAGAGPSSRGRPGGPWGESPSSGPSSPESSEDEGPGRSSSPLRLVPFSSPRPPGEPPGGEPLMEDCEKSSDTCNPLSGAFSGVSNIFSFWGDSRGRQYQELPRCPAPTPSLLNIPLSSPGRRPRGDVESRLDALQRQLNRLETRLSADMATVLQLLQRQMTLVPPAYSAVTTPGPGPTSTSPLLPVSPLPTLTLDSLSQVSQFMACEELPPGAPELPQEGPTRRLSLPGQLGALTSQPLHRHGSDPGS

CYP2D6 = CYP2D6 (Homo sapiens (Human), UniProt P10635); experiment: CYP P450 enzyme inhibition in pooled human liver microsome; settings: dextromethorphan 5 μM; for CYP2D6 @ 10 μM: inhibition at 10 μM, pooled HLM; for pIC50: CYP2D6 IC50, pooled HLM
CYP2D6, sequence (P10635 whole entry): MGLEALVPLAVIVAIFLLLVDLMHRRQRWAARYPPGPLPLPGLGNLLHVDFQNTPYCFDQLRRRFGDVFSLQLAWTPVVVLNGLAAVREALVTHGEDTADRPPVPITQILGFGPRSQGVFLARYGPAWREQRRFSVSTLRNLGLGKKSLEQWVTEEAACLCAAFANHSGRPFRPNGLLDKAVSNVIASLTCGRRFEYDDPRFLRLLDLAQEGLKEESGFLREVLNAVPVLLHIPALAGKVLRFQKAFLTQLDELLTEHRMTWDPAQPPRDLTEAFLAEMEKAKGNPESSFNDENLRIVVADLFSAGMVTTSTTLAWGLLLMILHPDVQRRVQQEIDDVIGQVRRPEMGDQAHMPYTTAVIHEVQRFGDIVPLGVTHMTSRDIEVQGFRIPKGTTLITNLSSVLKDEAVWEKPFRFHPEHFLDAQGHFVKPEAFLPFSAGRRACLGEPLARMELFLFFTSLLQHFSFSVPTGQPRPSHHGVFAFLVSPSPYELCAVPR
Description: Those CYP isoforms and their corresponding probe substrates are as follows: CYP1A2 (phenacetin, 30 μM), CYP2C9 (tolutamide, 100 μM), CYP2C19 (S-mephenytoin, 40 μM), CYP2D6 (dextromethorphan, 5 μM) and CYP3A4 (midazolam, 1 μM). All probe substrates were used at concentrations near or below their Kms. For experiment, a reaction mixture of test compound at 10 uM or in serial dilution, CYP probe substrate described above and 0.2 mg/mL pooled HLM in phosphate buffer, pH 7.4 in a final volume of 200 μL was pre-incubated at 37° C. for 10 minutes in triplicate. The reaction was initiated by addition of NADPH at final concentration of 1 mM. The reaction was terminated after 10 minutes (CYP1A2, CYP2D6 and CYP3A4) or 30 minutes (CYP2C9 and CYP2C19) by addition of 100 μL ice-cold acetonitrile with internal standard (IS). The samples were then centrifuged at 13,000 rpm and the supernatants were injected to LC-MS/MS (Agilent Technologies) to quantify the concentration of the specific metabolites of the probe substrates formed by individual CYP450 isoforms. The inhibition ratio is calculated as: (Mt−M0)/Mwater×100% in which Mt and M0 represent the concentrations of the specific probe substrate metabolite, which was formed by individual CYP450 isoform, at the beginning and end of the reaction in the presence of test compound; while Mwater represents the concentration of the specific metabolite at the end of the reaction in the absence of test compound. Test compound concentration-dependent response data experiments performed in triplicate.

human NR1/NR2A [2] = molecular target: human NR1/NR2A (Homo sapiens (Human), UniProt Q12879); experiment: NR2A antagonist activity, Fluo-4 calcium influx assay in HEK293 cells; assay type: cell-based
Description: as §1, §2

[3] = hNR2B IC50, HEK293 cells expressing NR1/NR2B
[4] = HEK293 cells expressing NR1/NR2B, read-out: hNR2B IC50
[5] = HEK293 cells expressing NR1/NR2A, glutamate 100 μM, glycine 50 μM, read-out: hNR2A IC50
[6] = read-out: hNR2A IC50; HEK293 cells expressing NR1/NR2A; glutamate 100 μM, glycine 50 μM

In the case of `FC1(F)CN(CCc2ccccc2)CCC1Nc1ncnc2[nH]ncc12` (racemic) [C-1.1, (±)-N-(3,3-difluoro-1-phenethylpiperidin-4-yl)-1H-pyrazolo[3,4-d]pyrimidin-4-amine], the pIC50 (human NR1/NR2B; [3]) was 7.01, the pIC50 (human NR1/NR2A [1]) was < 5.00 and the pIC50 (hERG channel) was 4.15.

For `Fc1ccc(CCN2CCC(Nc3ncnc4[nH]ncc34)C(F)(F)C2)cc1` (racemic) [C-1.2, (±)-N-(3,3-difluoro-1-(4-fluorophenethyl)piperidin-4-yl)-1H-pyrazolo[3,4-d]-pyrimidin-4-amine], the pIC50 (human NR1/NR2B; [3]) was 7.17, the pIC50 (human NR1/NR2A [1]) was < 5.00 and the “CYP2D6 @ 10 μM” value (CYP2D6) was 45.1%. The pIC50 (hERG channel) was 4.79.

With `Cc1n[nH]c2ncnc(NC3CCN(CCc4ccc(C(F)(F)F)cc4)CC3(F)F)c12` (racemic) [C-1.34, (±)-N-(3,3-difluoro-1-(4-(trifluoromethyl)phenethyl)piperidin-4-yl)-3-methyl-1H-pyrazolo[3,4-d]pyrimidin-4-amine] the pIC50 (human NR1/NR2A [1]) was < 5.00 and the “hERG @ 10 μM” value (hERG channel) was 68%.

`Fc1ccc(F)c(CCN2CCC(Nc3ncnc4[nH]ncc34)C(F)(F)C2)c1` (racemic) [C-1.35, (±)-N-(1-(2,5-difluorophenethyl)-3,3-difluoropiperidin-4-yl)-1H-pyrazolo[3,4-d]-pyrimidin-4-amine] was tested, and the pIC50 (human NR1/NR2B; [3]) was 6.48, the pIC50 (human NR1/NR2A [1]) was < 5.00 and the “hERG @ 10 μM” value (hERG channel) was 17%.

With `FC(F)(F)c1cccc(CCN2CCC(Nc3ncnc4[nH]ncc34)C(F)(F)C2)c1` (racemic) [C-1.36] the pIC50 (human NR1/NR2A [1]) was < 5.00, the “CYP2D6 @ 10 μM” value (CYP2D6) was 27.9% and the “hERG @ 10 μM” value (hERG channel) was 56%.

In the case of `FC(F)(F)c1ccc(CCN2CCC(Nc3ncnc4[nH]ccc34)C(F)(F)C2)cc1` (racemic) [C-2.5, (±)-N-(3,3-difluoro-1-(4-(trifluoromethyl)phenethyl)piperidin-4-yl)-7H-pyrrolo-[2,3-d]pyrimidin-4-amine], the pIC50 (human NR1/NR2B; [4]) was 6.98, the pIC50 (human NR1/NR2A [1]; [5]) was < 5.00 and the “hERG @ 10 μM” value (hERG channel) was 60%.

`Cc1ccc(CCN2CCC(Nc3ncnc4[nH]ncc34)C(F)(F)C2)cn1` (racemic) [C-3.4, (±)-N-(3,3-difluoro-1-(2-(6-methylpyridin-3-yl)ethyl)piperidin-4-yl)-1H-pyrazolo[3,4-d]pyrimidin-4-amine] was tested, and the pIC50 (human NR1/NR2B; [3]) was 5.64, the pIC50 (human NR1/NR2A [1]) was < 5.00 and the “hERG @ 10 μM” value (hERG channel) was 18%.

In the case of `FC(F)(F)c1ccc(CCN2CCC(Nc3ncnc4[nH]ncc34)C(F)(F)C2)cn1` (racemic) [C-3.5, (±)-N-(3,3-difluoro-1-(2-(6-(trifluoromethyl)pyridin-3-yl)ethyl)piperidin-4-yl)-1H-pyrazolo[3,4-d]pyrimidin-4-amine], the pIC50 (human NR1/NR2B; [4]) was 6.09, the pIC50 (human NR1/NR2A [1]; [5]) was < 5.00 and the “hERG @ 10 μM” value (hERG channel) was 23%.

With `FC(F)(F)c1ccc(CCN2CCC(Nc3ncnc4[nH]ccc34)C(F)(F)C2)cn1` (racemic) [C-4.5, (±)-N-(3,3-difluoro-1-(2-(6-(trifluoromethyl)pyridin-3-yl)ethyl)piperidin-4-yl)-7H-pyrrolo[2,3-d]pyrimidin-4-amine] the pIC50 (human NR1/NR2B; [4]) was 5.76, the pIC50 (human NR1/NR2A [1]; [5]) was < 5.00 and the “hERG @ 10 μM” value (hERG channel) was 24%.

For `FC1(F)CN(CCc2ccc(Cl)cc2)CCC1Nc1ncnc2[nH]ncc12` (single isomer, unassigned) [E1-1.3, (R*)-N-(1-(4-chlorophenethyl)-3,3-difluoropiperidin-4-yl)-1H-pyrazolo[3,4-d]-pyrimidin-4-amine], the pIC50 (human NR1/NR2B; [3]) was 7.60, the pIC50 (human NR1/NR2A [1]) was < 5.00 and the “CYP2D6 @ 10 μM” value (CYP2D6) was 21.5%. The “hERG @ 10 μM” value (hERG channel) was 58%.

In the case of `Cc1ccc(CCN2CCC(Nc3ncnc4[nH]ncc34)C(F)(F)C2)cc1` (single isomer, unassigned) [E1-1.4, (R*)-N-(3,3-difluoro-1-(4-methylphenethyl)piperidin-4-yl)-1H-pyrazolo[3,4-d]-pyrimidin-4-amine], the pIC50 (human NR1/NR2B; [3]) was 7.73 and the pIC50 (human NR1/NR2A [1]) was < 5.00.

In the case of `FC(F)c1ccc(CCN2CCC(Nc3ncnc4[nH]ncc34)C(F)(F)C2)cc1` (single isomer, unassigned) [E1-1.6, (R*)-N-(1-(4-(difluoromethyl)phenethyl)-3,3-difluoropiperidin-4-yl)-1H-pyrazolo-[3,4-d]pyrimidin-4-amine], the pIC50 (human NR1/NR2A [1]) was < 5.00, the “CYP2D6 @ 10 μM” value (CYP2D6) was 24.4% and the pIC50 (hERG channel; hERG IC50) was 5.46. The “hERG @ 10 μM” value (hERG channel) was 63%.

With `FCc1ccc(CCN2CCC(Nc3ncnc4[nH]ncc34)C(F)(F)C2)cc1` (single isomer, unassigned) [E1-1.7, (R*)-N-(3,3-difluoro-1-(4-(fluoromethyl)phenethyl)piperidin-4-yl)-1H-pyrazolo[3,4-d]-pyrimidin-4-amine] the pIC50 (human NR1/NR2B; [3]) was 7.65, the pIC50 (human NR1/NR2A [1]) was < 5.00 and the “CYP2D6 @ 10 μM” value (CYP2D6) was 23.2%. The “hERG @ 10 μM” value (hERG channel) was 36%.

In the case of `FC(F)(F)Oc1ccc(CCN2CCC(Nc3ncnc4[nH]ncc34)C(F)(F)C2)cc1` (single isomer, unassigned) [E1-1.11, (R*)-N-(3,3-difluoro-1-(4-(trifluoromethoxy)phenethyl)piperidin-4-yl)-1H-pyrazolo[3,4-d]pyrimidin-4-amine], the pIC50 (human NR1/NR2A [1]) was < 5.00.

`FC(F)Oc1ccc(CCN2CCC(Nc3ncnc4[nH]ncc34)C(F)(F)C2)cc1` (single isomer, unassigned) [E1-1.12, (R*)-N-(1-(4-(difluoromethoxy)phenethyl)-3,3-difluoropiperidin-4-yl)-1H-pyrazolo[3,4-d]pyrimidin-4-amine] was tested, and the pIC50 (human NR1/NR2B; [3]) was 7.08, the pIC50 (human NR1/NR2A [1]) was < 5.00 and the “hERG @ 10 μM” value (hERG channel) was 79%.

With `Fc1cc(Cl)ccc1CCN1CCC(Nc2ncnc3[nH]ncc23)C(F)(F)C1` (single isomer, unassigned) [E1-1.16, (R*)-N-(1-(4-chloro-2-fluorophenethyl)-3,3-difluoropiperidin-4-yl)-1H-pyrazolo-[3,4-d]pyrimidin-4-amine] the pIC50 (human NR1/NR2B; [3]) was 7.55, the pIC50 (human NR1/NR2A [1]) was < 5.00 and the “CYP2D6 @ 10 μM” value (CYP2D6) was 23.2%. For the same molecule, the “hERG @ 10 μM” value (hERG channel) was 47%.

In the case of `FC1(F)CN(CCc2ccc(Cl)cc2)CCC1Nc1ncnc2[nH]ncc12` (single isomer, unassigned) [E2-1.3, (S*)-N-(1-(4-chlorophenethyl)-3,3-difluoropiperidin-4-yl)-1H-pyrazolo[3,4-d]pyrimidin-4-amine], the pIC50 (human NR1/NR2B; [3]) was 7.50, the pIC50 (human NR1/NR2A [2]; [6]) was < 5.00 and the “CYP2D6 @ 10 μM” value (CYP2D6) was 27.6%. The “hERG @ 10 μM” value (hERG channel) was 64%.

In the case of `Cc1ccc(CCN2CCC(Nc3ncnc4[nH]ncc34)C(F)(F)C2)cc1` (single isomer, unassigned) [E2-1.4, (S*)-N-(3,3-difluoro-1-(4-methylphenethyl)piperidin-4-yl)-1H-pyrazolo[3,4-d]-pyrimidin-4-amine], the pIC50 (human NR1/NR2B; [3]) was 7.66 and the pIC50 (human NR1/NR2A [2]; [6]) was < 5.00.

For `FC(F)c1ccc(CCN2CCC(Nc3ncnc4[nH]ncc34)C(F)(F)C2)cc1` (single isomer, unassigned) [E2-1.6, (S*)-N-(1-(4-(difluoromethyl)phenethyl)-3,3-difluoropiperidin-4-yl)-1H-pyrazolo-[3,4-d]-pyrimidin-4-amine], the pIC50 (human NR1/NR2A [2]; [6]) was < 5.00, the “CYP2D6 @ 10 μM” value (CYP2D6) was 37.1% and the “hERG @ 10 μM” value (hERG channel) was 70%.

In the case of `FCc1ccc(CCN2CCC(Nc3ncnc4[nH]ncc34)C(F)(F)C2)cc1` (single isomer, unassigned) [E2-1.7, (S*)-N-(3,3-difluoro-1-(4-(fluoromethyl)phenethyl)piperidin-4-yl)-1H-pyrazolo-[3,4-d]-pyrimidin-4-amine], the pIC50 (human NR1/NR2B; [3]) was 7.42, the pIC50 (human NR1/NR2A [2]; [6]) was < 5.00 and the “hERG @ 10 μM” value (hERG channel) was 49%.

In the case of `Fc1cc(Cl)ccc1CCN1CCC(Nc2ncnc3[nH]ncc23)C(F)(F)C1` (single isomer, unassigned) [E2-1.16, (S*)-N-(1-(4-chloro-2-fluorophenethyl)-3,3-difluoropiperidin-4-yl)-1H-pyrazolo-[3,4-d]pyrimidin-4-amine], the pIC50 (human NR1/NR2B; [3]) was 7.21, the pIC50 (human NR1/NR2A [2]; [6]) was < 5.00 and the “hERG @ 10 μM” value (hERG channel) was 64%.

`FC(F)(F)c1ccc(CCN2CCC(Nc3ncnc4[nH]ncc34)C(F)(F)C2)cc1` (single isomer, unassigned; (+)) [E1-1.5, (+)-(R*)-N-(3,3-difluoro-1-(4-(trifluoromethyl)phenethyl)piperidin-4-yl)-1H-pyrazolo[3,4-d]pyrimidin-4-amine] was tested, and the pIC50 (human NR1/NR2A [1]) was < 5.00, the pIC50 (CYP2D6) was 4.47 and the “CYP2D6 @ 10 μM” value (CYP2D6) was 27.6%. For the same molecule, the pIC50 (hERG channel; hERG IC50) was 5.01.

With `FC(F)(F)c1ccc(CCN2CCC(Nc3ncnc4[nH]ncc34)C(F)(F)C2)cc1` (single isomer, unassigned; (-)) [E2-1.5, (−)-(S*)-N-(3,3-difluoro-1-(4-(trifluoromethyl)phenethyl)piperidin-4-yl)-1H-pyrazolo[3,4-d]pyrimidin-4-amine] the pIC50 (human NR1/NR2A [2]; [6]) was < 5.00, the pIC50 (CYP2D6) was 4.82 and the “CYP2D6 @ 10 μM” value (CYP2D6) was 37.9%. The pIC50 (hERG channel; hERG IC50) was 5.12.

`FC(F)(F)c1ccc(C(F)(F)CN2CCC(Nc3ncnc4[nH]ncc34)CC2)cc1` [LX-1, reference compound] was tested, and the “CYP2D6 @ 10 μM” value (CYP2D6) was 93%.

With “(±)-N-(1-(3,4-difluorophenethyl)-3,3-difluoropiperidin-4-yl)-1H-pyrazolo-[3,4-d]-pyrimidin-4-amine [C-1.15]” the pIC50 (human NR1/NR2B; [4]) was 7.10, the pIC50 (human NR1/NR2A [2]; HEK293 cells expressing NR1/NR2A; glutamate 100 μM, glycine 50 μM; read-out: hNR2A IC50) was < 5.00 and the “hERG @ 10 μM” value (hERG channel) was 37%.
